Data reported in ChEMBL document CHEMBL1201862, “PubChem BioAssay data set” (2004).
Calls of active or inactive are those of the source.

Assays:
[1] = molecular target: T1, RNA-binding protein pos-1 (Caenorhabditis elegans, UniProt G5EF15); experiment: inhibitors of POS-1/mex-3 RNA binding, dose response, biochemical, fluorescence polarization (AID 1964);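 also: purified POS-1 fused to maltose binding protein made in E. coli; potency of compounds blocking POS-1 binding to fluorescent RNA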
T1 sequence (G5EF15 whole entry): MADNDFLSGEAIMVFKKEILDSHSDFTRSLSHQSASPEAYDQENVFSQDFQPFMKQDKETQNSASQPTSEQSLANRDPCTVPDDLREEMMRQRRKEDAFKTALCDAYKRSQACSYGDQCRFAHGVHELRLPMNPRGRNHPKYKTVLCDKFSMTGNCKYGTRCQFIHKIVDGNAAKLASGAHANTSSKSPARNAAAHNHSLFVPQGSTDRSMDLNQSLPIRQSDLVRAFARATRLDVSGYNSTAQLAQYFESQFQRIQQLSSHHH

[2] = Counterscreen for IDE inhibitors: Luminescence-based cell-based high throughput dose response assay to identify compounds that are cytotoxic to HEK cells. [Related pubchem assays: 434962 (Primary screen (IDE inhibitors in singlicate)), 449730 (Counterscreen (Cytotoxicity in triplicate)), 435028 (Confirmation (IDE inhibitors in triplicate)) …; assay type: functional; details: HEK293
Insulin-degrading enzyme = molecular target: T2, Insulin-degrading enzyme (Homo sapiens, UniProt P14735); experiment: Dose Response: Fluorescence polarization-based cell-based high throughput dose response assay for inhibitors of insulin-degrading enzyme (IDE). [Related pubchem assays: 434962 (Primary screen (IDE inhibitors in singlicate)), 449730 (Counterscreen (Cytotoxicity in triplicate)), 435028 (Confirmation (IDE inhibitors in triplicate)), 434984 (Summary …; assay type: functional
T2 sequence (P14735 whole entry): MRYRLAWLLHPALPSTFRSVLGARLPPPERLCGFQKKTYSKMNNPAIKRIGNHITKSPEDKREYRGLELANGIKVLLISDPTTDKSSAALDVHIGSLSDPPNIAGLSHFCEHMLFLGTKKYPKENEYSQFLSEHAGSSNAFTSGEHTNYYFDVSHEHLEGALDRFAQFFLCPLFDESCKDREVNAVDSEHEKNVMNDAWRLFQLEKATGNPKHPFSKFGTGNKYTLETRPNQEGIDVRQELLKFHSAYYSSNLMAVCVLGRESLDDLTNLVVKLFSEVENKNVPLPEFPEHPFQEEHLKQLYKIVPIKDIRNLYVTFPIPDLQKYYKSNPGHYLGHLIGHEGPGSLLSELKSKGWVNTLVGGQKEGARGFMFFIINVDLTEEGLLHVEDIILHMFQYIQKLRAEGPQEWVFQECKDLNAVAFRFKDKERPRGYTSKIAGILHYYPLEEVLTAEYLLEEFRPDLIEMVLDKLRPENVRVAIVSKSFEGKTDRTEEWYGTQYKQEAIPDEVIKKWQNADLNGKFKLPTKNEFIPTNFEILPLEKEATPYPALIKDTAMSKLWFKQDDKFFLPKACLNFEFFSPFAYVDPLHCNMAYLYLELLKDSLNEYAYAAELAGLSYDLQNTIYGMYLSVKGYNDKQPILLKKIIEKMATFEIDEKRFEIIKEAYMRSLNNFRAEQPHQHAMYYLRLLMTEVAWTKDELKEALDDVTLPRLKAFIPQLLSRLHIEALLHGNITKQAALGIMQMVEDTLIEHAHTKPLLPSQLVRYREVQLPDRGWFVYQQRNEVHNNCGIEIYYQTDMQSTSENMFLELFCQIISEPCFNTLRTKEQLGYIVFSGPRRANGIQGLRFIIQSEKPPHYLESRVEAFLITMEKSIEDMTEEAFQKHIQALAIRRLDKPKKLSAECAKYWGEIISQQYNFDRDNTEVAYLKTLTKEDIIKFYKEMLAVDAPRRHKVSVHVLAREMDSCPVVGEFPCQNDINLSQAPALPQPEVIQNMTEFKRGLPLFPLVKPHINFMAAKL

[3] = molecular target: T3, Neuropeptide Y receptor type 1 (Homo sapiens, UniProt P25929); experiment: Fluorescence-based counterscreen for agonists of NPY-Y2: cell-based high-throughput dose response assay for agonists of NPY-Y1.; assay type: functional
T3 sequence (P25929 whole entry): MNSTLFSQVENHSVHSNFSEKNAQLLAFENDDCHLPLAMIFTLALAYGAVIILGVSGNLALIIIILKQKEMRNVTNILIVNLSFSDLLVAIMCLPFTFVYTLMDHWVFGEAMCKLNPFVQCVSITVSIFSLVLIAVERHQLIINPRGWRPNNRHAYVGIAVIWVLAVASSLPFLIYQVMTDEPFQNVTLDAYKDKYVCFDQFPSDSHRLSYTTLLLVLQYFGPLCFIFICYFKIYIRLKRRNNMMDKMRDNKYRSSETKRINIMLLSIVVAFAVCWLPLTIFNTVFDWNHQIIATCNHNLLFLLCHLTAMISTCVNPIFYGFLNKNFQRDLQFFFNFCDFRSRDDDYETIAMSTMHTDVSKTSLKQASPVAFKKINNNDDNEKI

[4] = molecular target: T4, Neuropeptide Y receptor type 2 (Homo sapiens, UniProt P49146); experiment: Fluorescence-based cell-based high-throughput dose response assay for agonists of NPY-Y2. [Related pubchem assays: 1703 (Screening assay (CNGC inhibitors).), 1359 (Screening assay (NPY-Y2 potentiators or agonists).), 1304 (Screening assay (NPY-Y1 potentiators or agonists).), 1710 (Screening assay (NPY-Y2 agonists).), 1791 (Summary AID.)]; assay type: functional
T4 sequence (P49146 whole entry): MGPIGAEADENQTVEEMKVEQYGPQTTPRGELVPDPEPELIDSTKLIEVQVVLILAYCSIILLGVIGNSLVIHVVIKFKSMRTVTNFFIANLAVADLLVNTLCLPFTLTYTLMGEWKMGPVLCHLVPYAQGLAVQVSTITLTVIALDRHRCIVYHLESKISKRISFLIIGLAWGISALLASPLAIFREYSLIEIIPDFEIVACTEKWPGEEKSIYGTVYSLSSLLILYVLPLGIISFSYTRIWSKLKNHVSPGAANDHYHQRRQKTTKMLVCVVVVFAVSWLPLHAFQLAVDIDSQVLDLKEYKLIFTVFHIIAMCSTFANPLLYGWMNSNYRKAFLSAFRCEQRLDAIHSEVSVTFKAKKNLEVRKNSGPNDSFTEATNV

HEK293 = experiment: Fluorescence-based counterscreen for potentiators or agonists of NPY-Y2: cell-based high-throughput dose response assay to identify inhibitors of cyclic nucleotide gated ion channel (CNGC) activity. In this assay, the parental HEK293 cell line transfected with a cyclic-nucleotide gated ion channel (CNGC)-based cAMP sensor is used to measure inhibition of isoproterenol-induced CNGC activity by test compound.; assay type: functional; details: Homo sapiens;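 also: stimulus is 1 µM isoproterenol at EC100 plus PDE inhibitor Ro 20-1724 at 25 µM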
[5] = molecular target: Acyl-homoserine lactone acylase PvdQ (Pseudomonas aeruginosa (strain LESB58), UniProt Q9I194); experiment: P. aeruginosa PvdQ acylase inhibitors, dose response, biochemical, fluorescence, plate reader and imaging, cherry-picks (AID 493231)
Acyl-homoserine lactone acylase PvdQ, sequence (Q9I194 24-193 limits assumed): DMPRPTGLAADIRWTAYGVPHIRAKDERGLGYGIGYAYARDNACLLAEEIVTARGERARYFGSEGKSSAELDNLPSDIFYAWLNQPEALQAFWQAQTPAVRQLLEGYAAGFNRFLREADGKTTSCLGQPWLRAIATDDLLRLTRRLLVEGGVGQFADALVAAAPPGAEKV
Acyl-homoserine lactone acylase PvdQ, sequence (Q9I194 217-762 limits assumed): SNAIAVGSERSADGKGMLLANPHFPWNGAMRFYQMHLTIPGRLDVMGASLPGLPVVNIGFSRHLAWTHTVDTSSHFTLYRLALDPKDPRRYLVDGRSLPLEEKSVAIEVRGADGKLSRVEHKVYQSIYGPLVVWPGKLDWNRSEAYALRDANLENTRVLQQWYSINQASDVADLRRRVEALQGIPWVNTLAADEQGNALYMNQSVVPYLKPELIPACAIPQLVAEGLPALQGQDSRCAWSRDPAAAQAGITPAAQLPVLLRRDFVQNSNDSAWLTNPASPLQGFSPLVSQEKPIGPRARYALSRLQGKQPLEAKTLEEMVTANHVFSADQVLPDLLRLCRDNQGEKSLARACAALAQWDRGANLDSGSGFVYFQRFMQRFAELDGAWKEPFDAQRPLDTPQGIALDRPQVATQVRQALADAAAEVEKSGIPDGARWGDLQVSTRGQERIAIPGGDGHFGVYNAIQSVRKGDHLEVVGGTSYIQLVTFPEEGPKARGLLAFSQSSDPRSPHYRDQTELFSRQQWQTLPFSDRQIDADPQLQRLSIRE

NS3 = NS3 (Hepatitis C virus, UniProt A3EZJ3); experiment: PubChem AID 2173; design: species or system Hepacivirus hominis
NS3, sequence (A3EZJ3 whole entry): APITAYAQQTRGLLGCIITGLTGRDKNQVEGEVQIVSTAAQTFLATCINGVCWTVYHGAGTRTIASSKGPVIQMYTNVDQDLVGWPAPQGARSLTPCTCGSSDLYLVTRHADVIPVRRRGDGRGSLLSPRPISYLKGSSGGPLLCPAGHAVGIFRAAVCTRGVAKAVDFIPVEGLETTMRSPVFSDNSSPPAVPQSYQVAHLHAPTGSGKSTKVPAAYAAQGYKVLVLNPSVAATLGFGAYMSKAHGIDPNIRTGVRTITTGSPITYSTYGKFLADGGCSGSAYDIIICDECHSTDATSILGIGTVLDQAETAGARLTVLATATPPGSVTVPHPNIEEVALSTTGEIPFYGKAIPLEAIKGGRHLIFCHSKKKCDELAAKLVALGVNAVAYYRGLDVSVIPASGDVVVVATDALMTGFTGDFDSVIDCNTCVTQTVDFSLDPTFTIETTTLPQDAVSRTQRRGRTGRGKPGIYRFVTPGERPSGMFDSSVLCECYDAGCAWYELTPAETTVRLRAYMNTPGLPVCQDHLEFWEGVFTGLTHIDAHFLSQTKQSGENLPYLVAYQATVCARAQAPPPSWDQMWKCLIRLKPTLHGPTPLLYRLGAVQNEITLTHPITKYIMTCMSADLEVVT

[6] = molecular target: Induced myeloid leukemia cell differentiation protein Mcl-1 (Homo sapiens, UniProt Q07820); assay type: functional
Induced myeloid leukemia cell differentiation protein Mcl-1, sequence (Q07820 whole entry): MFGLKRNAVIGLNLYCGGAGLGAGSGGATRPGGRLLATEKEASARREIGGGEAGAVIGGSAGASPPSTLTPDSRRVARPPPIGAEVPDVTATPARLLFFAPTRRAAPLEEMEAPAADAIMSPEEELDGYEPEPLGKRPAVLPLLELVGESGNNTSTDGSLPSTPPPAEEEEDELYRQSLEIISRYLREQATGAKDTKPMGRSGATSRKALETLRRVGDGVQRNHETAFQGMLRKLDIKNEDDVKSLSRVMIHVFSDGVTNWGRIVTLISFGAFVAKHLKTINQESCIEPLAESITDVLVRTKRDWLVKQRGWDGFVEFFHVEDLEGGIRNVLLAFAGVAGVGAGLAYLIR

Vero [7] = experiment: cells; assay type: functional; details: Chlorocebus sabaeus
Vero [8] = experiment: cells; assay type: functional, cell-based; details: Chlorocebus sabaeus
[9] = cytotoxicity in HEK-293T cells, dose response, cytotoxicity control for BCR NF-kB inhibitor project, luminescence, B-cell screen hits (AID 489021); assay type: functional, cell-based;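 also: HEK-293T cells carrying an NF-kB luciferase reporter; cells exposed to compound for about 14 hours before viability readout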
[10] = A cytotoxicity screen of small molecule inhibitors of the PhoP region in Salmonella typhi identified in the primary screen. [Related pubchem assays: 1850, 1864, 1985 ]; assay type: functional
[11] = molecular target: Lysosomal acid glucosylceramidase (Homo sapiens, UniProt P04062); experiment: Dose response cell-based high throughput screening assay to identify enhancers of beta-glucosidase activity. [Related pubchem assays: 784 ]; assay type: functional
Lysosomal acid glucosylceramidase, sequence (P04062 whole entry): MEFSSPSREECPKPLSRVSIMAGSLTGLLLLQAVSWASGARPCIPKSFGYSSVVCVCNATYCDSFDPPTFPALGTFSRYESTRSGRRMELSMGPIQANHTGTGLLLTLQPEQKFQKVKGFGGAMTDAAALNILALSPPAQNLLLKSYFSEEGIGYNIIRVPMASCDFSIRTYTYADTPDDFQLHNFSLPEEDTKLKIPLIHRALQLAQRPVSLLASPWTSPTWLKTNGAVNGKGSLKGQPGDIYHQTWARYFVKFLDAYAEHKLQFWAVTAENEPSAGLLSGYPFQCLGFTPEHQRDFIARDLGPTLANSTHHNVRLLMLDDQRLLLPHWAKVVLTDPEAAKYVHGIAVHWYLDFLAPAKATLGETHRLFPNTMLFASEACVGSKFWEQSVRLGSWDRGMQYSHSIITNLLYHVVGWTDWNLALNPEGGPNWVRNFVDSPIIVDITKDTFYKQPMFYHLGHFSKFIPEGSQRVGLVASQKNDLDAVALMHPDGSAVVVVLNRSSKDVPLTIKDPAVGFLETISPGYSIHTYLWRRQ

With `CCN(CC)c1ccc(/C=C2\C(=O)NC(=S)N(c3ccc(OC)cc3OC)C2=O)o1` the EC50 [1] was > 150 µM (inconclusive), the IC50 [2] was > 55.6 µM (not active) and the IC50 (Insulin-degrading enzyme) was > 6.21 µM (active).
With `N#Cc1c(Cl)nsc1NN` the EC50 [3] was 7.05 µM (active), the EC50 [4] was 9.25 µM (active) and the EC50 (HEK293) was 9.97 µM (active).
In the case of `CCOC(=O)/C(C#N)=C/c1ccc(SC)cc1`, the AC50 [5] is reported as 18.1 µM (active).
For `CNc1ccc(Br)cc(C(=O)/C=C/c2cccc(OC)c2)c1=O`, the IC50 (NS3) was 8.97 µM (active), the IC50 [6] was 1.92 µM (active) and the CC50 (Vero [7]) was 12.7 µM (active). The IC50 (Vero [8]) was 7.82 µM (active).
With `O=C(C1CCC1)N1CCN(c2ccc(Cl)cc2)CC1` the AC50 [5] was 13.5 µM (active).
In the case of `Cc1cc(C)c2nc(NC(=O)C3CSC4(C)CCC(=O)N34)sc2c1` (stereo not given), the IC50 [9] is reported as > 80 µM (inactive).
For `O=C(N/N=C/c1cccs1)c1ccc2[nH]cnc2c1`, the EC50 [10] was > 50 µM (active).
With `CCOc1ccc(-c2noc(-c3ccncc3)n2)cc1OCC` the EC50 [11] was > 10 µM (not active).
